Measured values: patent US3968100A, “Guanidio derivatives of kasugamycin and their production” (Zaidan Hojin Biseibutsu Kagaku Kenkyu Kai, priority 1972, dated 1976)
Values after ≈ are worked out from the molar mass of the structure shown. Read-outs that look alike come from different tables or passages of the source.

What was measured:
[1] = test system: mice; assay: acute toxicity to mice injected intravenously; assay type: in vivo; details: 350 mg/kg intravenously, five mice
Excerpt: (§1) The process of Example 3 was repeated using propylenediamine and butylenediamine, respectively in stead of the ethylenediamine. There were obtained 1D-3-O-{2-amino-4-[(2-aminopropyl)-guanidinol]-2,3,4,6-tetradeoxy-α- D-arabino-hexopyranosyl}-chiro-inositol and 1D-3-O-{2-amino-4-[(2-aminobutyl)-guanidinol]-2,3,4,6-tetradeoxy-α-D-arabino-hexopyranosyl]-chiro-inositol in yields of 31.2% and24.6%, respectively.

[2] = test system: Klebsiella pneumoniae ATCC 10031; assay: antibacterial spectrum by the broth dilution method (MIC); assay type: cell-based; details: ATCC10031; Klebsiella pneumoniae ATCC 10031, broth dilution; read-out: Minimum inhibitory concentration
Procedure: (§2) The antibacterial spectrum of the new guanidino derivatives of kasugamycin was determined by the broth dilution method and shown in Table 2 below.

[3] = test system: Escherichia coli NIHJ; assay: as above; assay type: cell-based; details: read-out: Minimum inhibitory concentration
Procedure: as §2

[4] = test system: Bacillus subtilis ATCC 6633; assay: as above; assay type: cell-based; details: ATCC6633; Bacillus subtilis ATCC 6633, broth dilution; read-out: Minimum inhibitory concentration
Procedure: as §2

[5] = test system: Proteus vulgaris OX 19; assay: as above; assay type: cell-based; details: OX19; Proteus vulgaris OX 19, broth dilution; read-out: Minimum inhibitory concentration
Procedure: as §2

[6] = test system: Staphylococcus aureus 6538P; assay: as above; assay type: cell-based; details: read-out: Minimum inhibitory concentration
Procedure: as §2

[7] = test system: Pseudomonas fluorescence NIHJB-24; assay: as above; assay type: cell-based
Procedure: as §2

[8] = test system: Salmonella paratyphi A; assay: as above; assay type: cell-based; details: Salmonella enterica, read-out: Minimum inhibitory concentration
Procedure: as §2

[9] = test system: Shigella sonnei 191-66; assay: as above; assay type: cell-based; details: 19166; Shigella sonnei 191-66, broth dilution; read-out: Minimum inhibitory concentration
Procedure: as §2

[10] = test system: Escherichia coli K-12; assay: as above; assay type: cell-based; details: K12; Escherichia coli K-12, broth dilution; read-out: Minimum inhibitory concentration
Procedure: as §2

[11] = solubility; assay type: physicochemical
[12] = test system: chicks; assay: growth promoting effect on chicks; assay type: in vivo, chicks of broiler type (White Rock × White Cornish); parameters: Weight gain: unit not given here; details: 10 g/ton in ration; for Index of weight gain: control = 100
Procedure: Growth promoting effect of kasugamycin-KG-8 on chicks is tested below. Kasugamycin-KG-8 was mixed uniformly with ration and administered to chicks to examine its effect on growth promotion and improvement of feed utilization. Eighty chicks of broiler type (White Rock × White Cornish) were assigned to two lots of 40 chicks each and for 8 weeks. Lot 1 (Control): Supplied only with basal ration. Lot 2: Supplied with basal ration + kasugamycin-KG-8 10 g/ton. As the basal ration was used one of standard composition. Chick rearing was managed according to the usual method. Ration and drinking water were supplied ad libitum. Tabel 5 indicates beneficial effect of kasugamycin-KG-8 on chick growth promotion.

[13] = test system: Pseudomonas fluorescens NIHJ B-254; assay: activity of eluted fractions against test organism; assay type: cell-based; details: purified white powder
Procedure: The isourea derivative dihydrochloride of kasugamycin (500 mg) prepared in Example 2 was dissolved into 10% ethylenediamine in methanol (w/w). The solution was allowed to stand at room temperature for 24 hours, diluted with 80 ml of isopropanol and concentrated to one-half volume under reduced pressure. The solid deposited by concentration was filtered, washed with ethyl ether and dried to give 457 mg of a crude guanidino derivative of kasugamycin as a white powder. The crude powder was dissolved in 4.5 ml of water and adsorbed on a column containing 12 ml of a cation-exchange resin Amberlite IRC-50(NH4 -type). The column was washed with water and followed with 0.3N NH4 OH, and developed with 0.3N H2 SO4. The activities of each eluted fraction were determined using Pseudomonas fluorescens NIHJ B-254 as a test organism. […] And the product formed crystals as the salt of p-hydroxyazobenzene-p'-sulfonic acid.

[14] = test system: Pseudomonas aeruginosa No. 12; assay: protection test against infection in mice of Pseudomonas aeruginosa; assay type: in vivo, mice (dd strain) infected with Pseudomonas aeruginosa No. 12; details: for ED50: NO.12, ip, Pseudomonas aeruginosa, read-out: curative dose (CD50)
Procedure: The inoculum size of Pesudomonas aeruginosa No.12, which was 10 times of LD50 (3.1 × 10^8 cells/ml, 0.25 ml/mouse), was inoculated intraperitoneally to dd strain of mice (19-21 g body weight), and the treatment with the aforesaid kasugamycin-KG-8 was intraperitoneally injected at 0 and 6 hours after the infection.

[15] = acute toxicity to mice injected intravenously; assay type: in vivo; details: mouse, in vivo, iv
Excerpt: as §1

[16] = test system: swine; assay: growth promoting effect on swine; assay type: in vivo; details: pigs, 10 g/ton in ration, 7 weeks
Excerpt: Growth promoting effect of kasugamycin-KG-8 on swine is described below. Kasugamycin-KG-8 was mixed uniformly with ration and administered to pigs to examine its effect on growth promotion and improvement of feed utilization. Fourty-eight young pigs of 1 month old were assigned to two lots of […] pigs each and fed for 7 weeks. Lot 1 (Control): Supplied only with basal ration. Lot 2: Supplied with basal ration + kasugamycin-KG-8 10 g/ton. As the basal ration, one of standard composition was used. Swine raising was managed according to usual method. Each lot of […] pigs were fed in a concrete pen. Ration and drinking water were supplied ad libitum. The index of weight gain indicates beneficial effect of kasugamycin-KG-8 on swing growth promotion.

[17] = NIHJB24, Pseudomonas fluorescence NIHJB-24, broth dilution, read-out: Minimum inhibitory concentration

CC(N)CNC(=N)NC1CC(N)C(OC2C(O)C(O)C(O)C(O)C2O)OC1C [Example 4, 1D-3-O-{2-amino-4-[(2-aminopropyl)-guanidinol]-2,3,4,6-tetradeoxy-α-D-arabino-hexopyranosyl}-chiro-inositol]
deaths after intravenous injection [1]: none of them was dead

C[C@H]1O[C@H](O[C@H]2[C@H](O)[C@@H](O)[C@@H](O)[C@H](O)[C@@H]2O)[C@@H](N)C[C@@H]1NC(=N)NCCCN [R1 =--(CH2)3 NH2, R2 =H]
MIC [2]: 0.2 µg/mL (≈ 0.491 µM) | MIC [3]: 0.39 µg/mL (≈ 0.957 µM)

C[C@H]1O[C@H](O[C@H]2[C@H](O)[C@@H](O)[C@@H](O)[C@H](O)[C@@H]2O)[C@@H](N)C[C@@H]1NC(=N)NCCCCN [Compound 4]
MIC [4]: 0.78 µg/mL (≈ 1.85 µM) | MIC [2]: 1.56 µg/mL (≈ 3.7 µM) | MIC [5]: 1.56 µg/mL (≈ 3.7 µM) | MIC [3]: 12.5 µg/mL (≈ 29.7 µM) | MIC [6]: 0.2 µg/mL (≈ 0.475 µM) | MIC [7, 17]: 3.13 µg/mL (≈ 7.43 µM) | MIC [8]: 0.78 µg/mL (≈ 1.85 µM) | MIC [9]: 6.25 µg/mL (≈ 14.8 µM) | MIC [10]: 1.56 µg/mL (≈ 3.7 µM)

C[C@H]1O[C@H](O[C@H]2[C@H](O)[C@@H](O)[C@@H](O)[C@H](O)[C@@H]2O)[C@@H](N)C[C@@H]1NC(=N)NCCN [kasugamycin-KG-8, 1D-3-O-{2-amino-4-[(2-aminoethyl)-guanidino]-2,3,4,6-tetradeoxy-α-D-arabino-hexopyranosyl}-chiro-inositol]
solubility ([11]; other organic solvents): scarcely soluble or insoluble in other organic solvents | solubility ([11]; water, dimethylformamide and low alcohols): soluble in water, dimethylformamide and low alcohols | Weight gain ([12]; grower period for 4 weeks, control 871.8): 957.8 | Index of weight gain ([12]; grower period for 4 weeks): 109.9 | Feed conversion ([12]; grower period, control 3.65): 3.56 | Weight gain ([12]; starter period of 4 weeks, control 458.4): 496.2 | Index of weight gain ([12]; starter period of 4 weeks): 108.2 | Feed conversion ([12]; starter period, control 2.15): 2.15 | Weight gain ([12]; total period through 8 weeks, control 1330.2): 1454.0 | Index of weight gain ([12]; total period through 8 weeks): 109.3 | Feed conversion ([12]; total period, control 3.12): 3.07 | MIC [4]: 0.39 µg/mL (≈ 0.991 µM) | MIC [2]: 0.1 µg/mL (≈ 0.254 µM) | MIC [5]: 0.78 µg/mL (≈ 1.98 µM) | MIC [3]: 0.78 µg/mL (≈ 1.98 µM) | MIC [6]: 0.78 µg/mL (≈ 1.98 µM) | MIC ([7]; Pseudomonas, NIHJB24, read-out: Minimum inhibitory concentration): 1.56 µg/mL (≈ 3.97 µM) | MIC [8]: 0.2 µg/mL (≈ 0.508 µM) | MIC [9]: 1.56 µg/mL (≈ 3.97 µM) | MIC [10]: 0.39 µg/mL (≈ 0.991 µM) | activity relative to kasugamycin [13]: three times active than kasugamycin | Number survived/Number infected ([14]; 0.031 mg/mouse at one time, day 0 after infection): 0/4 | Number survived/Number infected ([14]; 0.031 mg/mouse at one time, day 1 after infection): 4/4 | Number survived/Number infected ([14]; 0.031 mg/mouse at one time, day 7 after infection): 4/4 | Number survived/Number infected ([14]; 0.063 mg/mouse at one time, day 0 after infection): 0/4 | Number survived/Number infected ([14]; 0.063 mg/mouse at one time, day 1 after infection): 1/4 | Number survived/Number infected ([14]; 0.063 mg/mouse at one time, day 2 after infection): 2/4 | Number survived/Number infected ([14]; 0.063 mg/mouse at one time, day 7 after infection): 2/4 | Number survived/Number infected ([14]; 0.125 mg/mouse at one time, day 0 after infection): 0/4 | Number survived/Number infected ([14]; 0.125 mg/mouse at one time, day 3 after infection): 1/4 | Number survived/Number infected ([14]; 0.125 mg/mouse at one time, day 7 after infection): 1/4 | Number survived/Number infected ([14]; 0.25 mg/mouse at one time, day 0 after infection): 0/4 | Number survived/Number infected ([14]; 0.25 mg/mouse at one time, day 7 after infection): 0/4 | Number survived/Number infected ([14]; 0.5 mg/mouse at one time, day 0 after infection): 0/4 | Number survived/Number infected ([14]; 0.5 mg/mouse at one time, day 7 after infection): 0/4 | Number survived/Number infected ([14]; 1.0 mg/mouse at one time, day 0 after infection): 0/4 | Number survived/Number infected ([14]; 1.0 mg/mouse at one time, day 7 after infection): 0/4 | Number survived/Number infected ([14]; 2.0 mg/mouse at one time, day 0 after infection): 0/4 | Number survived/Number infected ([14]; 2.0 mg/mouse at one time, day 7 after infection): 0/4 | ED50 ([14]; mice, intraperitoneal at 0 and 6 hours after infection): 3.13 mg/kg | LD50 [15]: 380 mg/kg | Feed conversion ([16]; control 3.05): 2.94 | Weight gain ([16]; control 8.20): 9.09 kg | Index of weight gain ([16]; control = 100): 110.9

C[C@H]1O[C@H](O[C@H]2[C@H](O)[C@@H](O)[C@@H](O)[C@H](O)[C@@H]2O)[C@@H](N)C[C@@H]1NC(=N)C(=O)O [Kasugamycin]
MIC [4]: > 100 µg/mL | MIC [2]: 50 µg/mL (≈ 132 µM) | MIC [5]: 100 µg/mL (≈ 264 µM) | MIC [3]: 100 µg/mL (≈ 264 µM) | MIC [6]: 50 µg/mL (≈ 132 µM) | MIC [7, 17]: 3.13 µg/mL (≈ 8.25 µM) | MIC [8]: 50 µg/mL (≈ 132 µM) | MIC [9]: > 100 µg/mL | MIC [10]: 100 µg/mL (≈ 264 µM) | ED50 [14]: 35.5 mg/kg

C[C@H]1O[C@H](O[C@H]2[C@H](O)[C@@H](O)[C@@H](O)[C@H](O)[C@@H]2O)[C@@H](N)C[C@@H]1NC(=N)NCCS(=O)(=O)O [Compound 8]
MIC [4]: 100 µg/mL (≈ 218 µM) | MIC [2]: > 100 µg/mL | MIC [5]: > 100 µg/mL | MIC [3]: > 100 µg/mL | MIC [6]: 12.5 µg/mL (≈ 27.3 µM) | MIC [7, 17]: 50 µg/mL (≈ 109 µM) | MIC [8]: 50 µg/mL (≈ 109 µM) | MIC [9]: > 100 µg/mL | MIC [10]: > 100 µg/mL

C[C@H]1O[C@H](O[C@H]2[C@H](O)[C@@H](O)[C@@H](O)[C@H](O)[C@@H]2O)[C@@H](N)C[C@@H]1NC(=N)NCCCCN [Example 5, 1D-3-O-{2-amino-4-[(2-aminobutyl)-guanidinol]-2,3,4,6-tetradeoxy-α-D-arabino-hexopyranosyl]-chiro-inositol]
deaths after intravenous injection [1]: one of them was dead

CNCCN(C)C(=N)N[C@H]1C[C@H](N)[C@@H](O[C@H]2[C@H](O)[C@@H](O)[C@@H](O)[C@H](O)[C@@H]2O)O[C@@H]1C [Compound 3]
MIC [4]: 25 µg/mL (≈ 59.3 µM) | MIC [2]: 100 µg/mL (≈ 237 µM) | MIC [5]: 50 µg/mL (≈ 119 µM) | MIC [3]: 100 µg/mL (≈ 237 µM) | MIC [6]: 50 µg/mL (≈ 119 µM) | MIC [7, 17]: 50 µg/mL (≈ 119 µM) | MIC [8]: 50 µg/mL (≈ 119 µM) | MIC [9]: 100 µg/mL (≈ 237 µM) | MIC [10]: 100 µg/mL (≈ 237 µM)
